# Laboratory results reported in US8053478B1, “Antimicrobial diaryl iodonium compositions and method” (Cornell Development Group, LLC, priority 2007, dated 2011).
# Columns and labels:
# human epithelial cells = assay: tests of toxicity on human epithelial cells; format: cell-based; conditions: approximate levels of 0.25 millimole concentrations; compared with controls
# mice = conditions: cited from earlier work
# E. Coli = assay: challenging the growth of E. Coli with measurement of optical density of media; format: cell-based; conditions: same optical density reduction; comparator 4-chlorophenyl-2-thienyliodonium bromide
# Excerpt: In an experiment challenging the growth of E. Coli with measurement of optical density of media, the present iodonium composition, 3,5-dimethyl 4-chlorophenyl 2-thienyl iodonium bromide, suppressed the optical density of the E. Coli media at one tenth the concentration needed to accomplish the same optical density reduction utilizing 4-chlorophenyl-2-thienyliodonium bromide. Optical density of the media is a semi-quantitative measure of the presence of growing bacteria. Reduced density indicates the test compounds are retarding bacterial growth. Thus, 3,5-dimethyl 4-chlorophenyl 2-thienyl iodonium bromide, which is non-toxic to mammals, has greater antimicrobial activity than 4-chlorophenyl-2-thienyliodonium bromide.
# [1] = test system: several strains of Staphylococcus aurelius, including Methicillin-resistant Staphylococcus aureus isolates; assay: MIC50 on Staphylococcus strains including Methicillin-resistant Staphylococcus aureus isolates; format: cell-based; conditions: same bacteria strains, incl. MRSA isolates; comparator 4-chlorophenyl 2-thienyl iodonium chloride
Structure (SMILES),toxicity on human epithelial cells (human epithelial cells),oral median lethal dose (LD50) (mice),"concentration needed to suppress optical density of E. Coli media, as fraction of that needed with 4-chlorophenyl-2-thienyliodonium bromide (E. Coli)",MIC50 as fraction of the MIC50 for 4-chlorophenyl 2-thienyl iodonium chloride [1]
"Clc1ccc([I+]c2cccs2)cc1.[Br-] [4-chlorophenyl-2-thienyliodonium bromide, reference compound]",lack of toxicity similar to that of controls,–,–,–
Clc1ccc([I+]c2cccs2)cc1.[Cl-] [4-chlorophenyl-2-thienyliodonium chloride],–,greater than 4000 mg/kg,–,–
"Cc1cc([I+]c2cccs2)cc(C)c1Cl.[Br-] [3,5-dimethyl 4-chlorophenyl 2-thienyl iodonium bromide]",lack of toxicity similar to that of controls,–,one tenth,one fifth
